Experimental data from US6482799B1, “Self-preserving multipurpose ophthalmic solutions incorporating a polypeptide antimicrobial” (The Regents of the University of California, priority 1999, dated 2002).

Legend:
[1] = test system: P. aeruginosa strain (ATCC 9027); assay: Protocol 1 kill curve / MIC, 1 hour at 37° C.; assay type: cell-based, Pseudomonas aeruginosa; settings: 6.25 μg/ml, 10 mM sodium phosphate buffer
Protocol: This protocol is used to develop dose-response (kill) curves to calculate the minimal inhibitory concentration of an indolicidin (e.g., L-indolicidin (L-IND)) when formulated in a commercially available phosphate buffered saline (PBS) solution. In addition, for comparative purposes, kill curves are established for the following three commonly available commercial lens-care products containing different preservatives:
The stock solutions are diluted in a 2-fold fashion by transferring 1 ml of each stock solution to 1 ml of appropriate diluent in sterile glass tubes (100×13 mm). Twelve additional 2-fold dilutions are made by transferring 1 ml aliquots of each dilution to 1 ml diluent. The diluent for all commercial lens-care products is PBS. […]
Viable counts of the bacteria are performed by 10-fold serial dilutions in sterile PBS and by plating 0.1 ml aliquots on nutrient agar plates. […] The plates are incubated overnight at 37° C. and colonies are counted and recorded. […]
Survival is expressed as number of surviving bacteria (CFU/ml) for each dilution of the test article and control solutions. The lowest dose of the test article that results in complete kill of the test organism, compared to the non-exposed control, is determined to be the MIC value. […]

[2] = test system: P. aeruginosa (ATCC 9027); assay: Protocol 3 time-dependent antimicrobial activity at one dose level; assay type: cell-based, Pseudomonas aeruginosa
Protocol: The objective of this protocol is to establish a procedure for determining the antimicrobial activity of indolicidin (e.g., L-IND) at 50 μg/ml over an extended exposure time up to 24 hours at room temperature. It is believed that this procedure more closely mimics the recommended use of lens-care products.
Exposure of the test organism to indolicidin occurs in a buffered solution for up to 24 hours with sampling for viability at different time intervals. Polypropylene 96-well microtiter plates and microcentrifuge tubes are used for exposure and dilution of indolicidin, respectively.
The following materials are used: sterile glass tubes containing 5 ml of Mueller-Hinton Broth (MHB), Mueller-Hinton agar plates, sterile 96-well polypropylene microtiter plates, and sterile polypropylene microcentrifuge tubes.
One or more of the following microorganisms are used in assays using this protocol or modification of this protocol: Pseudomonas aeruginosa (ATCC 9027), Pseudomonas aeruginosa (ATCC 27853), and S. aureus (ATCC 6538).
Five 5 ml of MHB tubes are innoculated with the tester strain(s) from MHA plates and grown overnight at 37° C. on a shaker (180 rpm). A micropipet tip is prewet for at least 2 minutes with 100 μl of the stock solution of indolicidin (e.g., L-IND). The test article is dispensed back in the stock solution vial and the pipette is reset to a volume of 10 μl. Polypropylene microcentrifuge tubes are used to dilute the stock of indolicidin (10 mg/ml) 10-fold in sterile water. To obtain a 10× solution of indolicidin with a dose level equivalent to 50 μg/ml dose level dilute 10 μl of the stock solution of indolicidin in 90 μl of sterile water. (The concentration of indolicidin in the final exposure volume of […] will be 5 μg when 10 μl of the 10× solution is added to 100 μl of bacterial suspension). The overnight cultures are washed twice in sterile saline and resuspend in appropriate buffer. The washed culture is diluted in the appropriate buffer to give an estimated 10^6 CFU/ml. Then 10 μl of the 10× test peptide dilutions are added to a predetermined number of wells in the polypropylene microtiter plate. 100 μl of the bacterial suspension is dispensed to the wells in the polypropylene microtiter plate containing the test chemical and mixed well. Controls include one well each for negative controls, i.e., bacteria only sampled at the initiation of the experiment and at the completion of the experiment. The microtiter plate is covered with aluminum foil to shield the exposure mixture from direct light and placed on the bench top at room temperature. At the end of each time interval, the mixture is diluted in an appropriate sterile buffer and plated for viable counts.
Survival is determined by counting the colonies appearing on plates after overnight incubation at 37° C. The results are expressed as CFU/ml and survival is expressed as the percent of the bacteria that survived the treatment.
The purpose of this experiment was to repeat Experiment 4 under identical conditions using P. aeruginosa 9027, with the exception of one additional time point of 60 minutes. The culture was washed 2 times in 10 mM sodium phosphate buffer, pH 7.4.
Protocol 3 was used with the modifications described above. The test organism was P. aeruginosa 9027. L-indolicidin was tested at 50 μg/ml only. Sterile water was used as a solvent for L-IND. 10 mM sodium phosphate buffer, pH 7.4 was used as a vehicle for exposure of bacteria to L-IND. Final incubation volume in polypropylene microtiter plates was 110 μl, and incubation times were 0, 1, 2, 5 and 15 and 60 minutes at room temperature.
This experiment was a repeat of Experiment 6 using the same exposure protocol, but with a prolonged exposure time, namely 24 hours, and using washed cells of an 18-hour old overnight culture of P. aeruginosa inoculated in Mueller-Hinton broth. Incubation times were 0 and 24 hours, at room temperature. […]

CC[C@H](C)[C@H](N)C(=O)N[C@@H](CC(C)C)C(=O)N1CCC[C@H]1C(=O)N[C@@H](Cc1c[nH]c2ccccc12)C(=O)N[C@@H](CCCCN)C(=O)N[C@@H](Cc1c[nH]c2ccccc12)C(=O)N1CCC[C@H]1C(=O)N[C@@H](Cc1c[nH]c2ccccc12)C(=O)N[C@@H](Cc1c[nH]c2ccccc12)C(=O)N1CCC[C@H]1C(=O)N[C@@H](Cc1c[nH]c2ccccc12)C(=O)N[C@@H](CCCNC(=N)N)C(=O)N[C@@H](CCCNC(=N)N)C(N)=O [L-indolicidin, H2N-ILPWKWPWWPWRR-CONH2]
survival [1]: 59%
survival ([2]; 50 μg/ml, 10 mM sodium phosphate buffer, 1, 2 and 5 minutes, room temperature): 100%
survival ([2]; 50 μg/ml, 10 mM sodium phosphate buffer, 15 minutes): 19%
survival reduction ([2]; 50 μg/ml, 10 mM sodium phosphate buffer, 60 min): ~2 logs
survival ([2]; 50 μg/ml, 10 mM sodium phosphate buffer, 24 hours, room temperature): no apparent survival
log cell reduction ([2]; 50 μg/ml, 10 mM sodium phosphate buffer, as early as after 1 minute exposure, initial 2.0×10^6 CFU/ml): ~6 log
survival ([2]; 50 μg/ml, 10 mM sodium phosphate buffer, exposure time 0 hr): 1.2 × 10^6 CFU/ml
survival ([2]; 50 μg/ml, 10 mM sodium phosphate buffer, exposure time 1 hr): 6.5 × 10^5 CFU/ml
survival ([2]; 50 μg/ml, 10 mM sodium phosphate buffer, exposure time 2 hr): 1.1 × 10^4 CFU/ml
survival ([2]; 50 μg/ml, 10 mM sodium phosphate buffer, exposure time 4 hr): 0 CFU/ml
survival ([2]; 50 μg/ml, 10 mM sodium phosphate buffer, exposure time 6 hr): 0 CFU/ml
survival ([2]; 50 μg/ml, 10 mM sodium phosphate buffer, exposure time 12 hr): 0 CFU/ml
survival ([2]; 50 μg/ml, 10 mM sodium phosphate buffer, up to 15 minutes): 100%
survival ([2]; 50 μg/ml, 100 mM sodium phosphate buffer pH 7.4, all time points 0-24 hours): no survival
viability decrease ([2]; 50 μg/ml, 100 mM sodium phosphate buffer, 1 and 2 minutes): about 1 log
colonies on plates ([2]; 50 μg/ml, 100 mM sodium phosphate buffer, 15 and 60 minutes): No colonies
colonies on plate seeded with 0.1 ml undiluted exposure mixture ([2]; 50 μg/ml, 100 mM sodium phosphate buffer, 5 minutes): 34 colonies
Bacterial growth, Buffer and L-indolicidin 50 μg/ml ([2]; 100 mM sodium phosphate buffer, incubation time 0 hr): 0
Bacterial growth, Buffer and L-indolicidin 50 μg/ml ([2]; 100 mM sodium phosphate buffer, incubation time 24 hr): 0
survival ([2]; 50 μ/ml, 10 mM sodium phosphate buffer, after 4 hours exposure): no detectable survival
